Measurements published in patent US4100346A, “Certain 7(o-amino-methyl- or methylaminomethylphenyl- or cyclohexadienyl- or thienylacetamide)-3[1-carboxymethyl-(or ethyl- or propyl-)-tetrazol-5-ylthiomethyl]-3-cephem-4-carboxylic acids” (Bristol-Myers Company, priority 1976, dated 1978).
≈ marks a conversion by molar mass, not a printed value. Like-named read-outs stand apart in the source and are kept apart here.

Key:
Enterobacter cloacae [1] = test: Effect of inoculum size on susceptibility of Enterobacteriaceae
Providencia stuartii = test: Growth inhibitory activity, antibiotic dilution technique; settings: Providencia stuartii strains; at a concentration of 16 mcg./ml.
Listeria monocytogenes = test: as above; settings: read-out: Minimum inhibitory concentration
Enterobacter cloacae [2] = test: Intramuscular treatment of systemically infected mice; type: in vivo; settings: mice, intramuscular; compared with control cephalosporins
Description: (§1) Treatment of Systemically Infected Mice. The procedures were identical with those published previously [Leitner et al., BL-S640, a Cephalosporin With a Broad Spectrum of Antibacterial Activity: Bioavailability and Therapeutic Properties in Rodents, Antimicrob. Agents Chemother.
(a) the hog gastric mucin used in infections with Staphylococcus aureus No. 2 was purchased from American Laboratories, Inc., Omaha, Neb.

Alcaligenes sp. = test: Growth inhibitory activity, antibiotic dilution technique
Staphylococcus aureus [3] = test: Intramuscular treatment of systemically infected mice; type: in vivo; settings: im, read-out: PD50 /treatment
Description: as §1, with “Chemother. 7:306-310, (1975)], except that:” for “Chemother.”
(§2) (a) the hog gastric mucin used in infections with Staphylococcus aureus No. 2 was purchased from American Laboratories, Inc., Omaha, Neb. (lot No. 154163) and b) that the medium used to suspend all other organisms contained 3% (rather than 4%) hog gastric mucin (type 1701W, Wilson Laboratories, Inc., Park Forest South, Ill.).
(§3) *Animals infected with penicillinase-producing staphyloccal strains (No.
(§4) and 3) were treated 0 and 2 hours after infection; the others were treate
(§5) 1 and 3.5 hours after infection.

Streptococcus pneumoniae = test: as above; type: in vivo; settings: im, 3.5 h, read-out: PD50 /treatment
Description: as §1, with “Chemother. 7:306-310, (1975)], except that:” for “Chemother.”
as §2, §3, §4, §5

Streptococcus pyogenes = test: as above; type: in vivo; settings: im, 3.5 h, read-out: PD50 /treatment
Description: as §1, with “Chemother. 7:306-310, (1975)], except that:” for “Chemother.”
as §2, §3, §4, §5

Proteus rettgeri = test: Effect of inoculum size on susceptibility of Enterobacteriaceae; settings: Providencia rettgeri
Staphylococcus Aureus [4] = test: Effect of inoculum size on susceptibility of Staphylococcus aureus; type: cell-based; settings: for MICB /MICA: MIC at 10^6 over MIC at 10^2 organisms; for MIC: Staphylococcus aureus, read-out: Minimum inhibitory concentration
Haemophilus influenzae = test: Growth inhibitory activity, antibiotic dilution technique; settings: including 9 ampicillin-resistant strains
Clostridium sp. = test: microbe, parasite or virus in culture; type: cell-based
Procedure: (§6) Antibiotic spectrum. […] Procedures were as follows:
c. Obligate anaerobes. The assay was performed on solid medium, consisting of Brain Heart Infusion Broth (BBL) supplemented with 5% defibrinated sheep blood and 1% Ionagar (Colab).

Serratia marcescens = test: Growth inhibitory activity, antibiotic dilution technique; settings: read-out: Minimum inhibitory concentration
Bacteroides Fragilis = test: Growth inhibitory activity, antibiotic dilution technique (obligate anaerobes); type: cell-based; settings: 3 strains, geometric mean when applicable, read-out: Minimum inhibitory concentration
Procedure: as §6
c. Obligate anaerobes. The assay was performed on solid medium, consisting of Brain Heart Infusion Broth (BBL) supplemented with 5% defibrinated sheep blood and 1% Ionagar (Colab). […] The plates were incubated at 37° C. for 48 hours under the oxygen-free conditions attained with a Gas-Pak (BBL) Brewer jar system.

Proteus mirabilis = test: Effect of inoculum size on susceptibility of Enterobacteriaceae
Vibrio cholerae = test: Growth inhibitory activity, antibiotic dilution technique; settings: read-out: Minimum inhibitory concentration
in vitro = in vitro ADME, human; settings: In 95% human serum; read-out: protein bound (converted)
Pseudomonas aeruginosa = test: Growth inhibitory activity, antibiotic dilution technique; settings: read-out: Minimum inhibitory concentration
Proteus vulgaris = test: Effect of inoculum size on susceptibility of Enterobacteriaceae

Compound `NCc1ccccc1CC(=O)N[C@@H]1C(=O)N2C(C(=O)O)=C(CSc3nnnn3CC(=O)O)CS[C@H]12` [Example 1] has an MIC (Enterobacter cloacae [1]; read-out: Minimum Inhibitory Concentration, Enterobacter cloacae strain 1, A, Inoculum of 10^2 organisms) of 1 µg/mL (≈ 1.92 µM), an MIC (Enterobacter cloacae [1]; read-out: Minimum Inhibitory Concentration, Enterobacter cloacae strain 1, B, Inoculum of 10^6 organisms) greater than 250 µg/mL and an MIC (Enterobacter cloacae [1]; read-out: Minimum Inhibitory Concentration, Enterobacter cloacae strain 2, A, Inoculum of 10^2 organisms) of 1 µg/mL (≈ 1.92 µM). The MIC (Enterobacter cloacae [1]; read-out: Minimum Inhibitory Concentration, Enterobacter cloacae strain 2, B, Inoculum of 10^6 organisms) was greater than 250 µg/mL, the MIC (Enterobacter cloacae [1]; read-out: Minimum Inhibitory Concentration, Enterobacter cloacae strain 3, A, Inoculum of 10^2 organisms) was 2 µg/mL (≈ 3.85 µM) and the MIC (Enterobacter cloacae [1]; read-out: Minimum Inhibitory Concentration, Enterobacter cloacae strain 3, B, Inoculum of 10^6 organisms) was greater than 250 µg/mL. The MIC (Enterobacter cloacae [1]; read-out: Minimum Inhibitory Concentration, Enterobacter cloacae strain 4, A, Inoculum of 10^2 organisms) was 2 µg/mL (≈ 3.85 µM), the MIC (Enterobacter cloacae [1]; read-out: Minimum Inhibitory Concentration, Enterobacter cloacae strain 4, B, Inoculum of 10^6 organisms) was greater than 250 µg/mL and the MIC (Enterobacter cloacae [1]; read-out: Minimum Inhibitory Concentration, Enterobacter cloacae strain 5, A, Inoculum of 10^2 organisms) was 8 µg/mL (≈ 15.4 µM). The MIC (Enterobacter cloacae [1]; read-out: Minimum Inhibitory Concentration, Enterobacter cloacae strain 5, B, Inoculum of 10^6 organisms) was 250 µg/mL (≈ 481 µM), the “percent of strains inhibited” value (Providencia stuartii) was “Ninety-eight” and the MIC (Listeria monocytogenes) was 10.8 µg/mL (≈ 20.8 µM). For the same compound, the “efficacy against infections with Enterobacter cloacae” value (Enterobacter cloacae [2]) was “alone was effective”, the MIC (Alcaligenes sp.; read-out: Minimum inhibitory concentration, Alcaligenes sp., 2 strains, geometric mean when applicable) was 63 µg/mL (≈ 121 µM) and the MIC (Alcaligenes sp.; read-out: Minimum inhibitory concentration, Alcaligenes sp., 4 strains, geometric mean when applicable) was greater than 125 µg/mL. It also gave an MIC (Alcaligenes sp.; read-out: Minimum inhibitory concentration, Alcaligenes sp., 5 strains, geometric mean when applicable) of 2.6 µg/mL (≈ 5 µM), an ED50 (Staphylococcus aureus [3]; 3.5 h, Staphylococcus aureus strain 1, challenge 2 × 10^5 - 3 × 10^5, treated 1 and 3.5 hours after infection) of 0.3 mg/kg and an ED50 (Staphylococcus aureus [3]; Staphylococcus aureus strain 2 (penicillinase-producing), challenge 1 × 10^9, treated 0 and 2 hours after infection) of 5.4 mg/kg. It also gave an ED50 (Staphylococcus aureus [3]; Staphylococcus aureus strain 3 (penicillinase-producing), challenge 5 × 10^8 - 7 × 10^9, treated 0 and 2 hours after infection) of 10 mg/kg, an ED50 (Streptococcus pneumoniae; Streptococcus pneumoniae strain 1, challenge 2 × 10^3 - 9 × 10^3, treated 1 and 3.5 hours after infection) of 0.52 mg/kg and an ED50 (Streptococcus pneumoniae; Streptococcus pneumoniae strain 2, challenge 1 × 10^4 - 3 × 10^4, treated 1 and 3.5 hours after infection) of 1.6 mg/kg. It also gave an ED50 (Streptococcus pyogenes; Streptococcus pyogenes strain 1, challenge 2 × 10^3 -6 × 10^3, treated 1 and 3.5 hours after infection) of 2.9 mg/kg, an ED50 (Streptococcus pyogenes; Streptococcus pyogenes strain 2, challenge 1 × 10^4 - 5 × 10^4, treated 1 and 3.5 hours after infection) of 0.93 mg/kg and an MIC (Proteus rettgeri; read-out: Minimum Inhibitory Concentration, Proteus rettgeri strain 1, A, Inoculum of 10^2 organisms) of 0.13 µg/mL (≈ 0.25 µM). It also gave an MIC (Proteus rettgeri; read-out: Minimum Inhibitory Concentration, Proteus rettgeri strain 1, B, Inoculum of 10^6 organisms) of 125 µg/mL (≈ 241 µM), an MIC (Proteus rettgeri; read-out: Minimum Inhibitory Concentration, Proteus rettgeri strain 2, A, Inoculum of 10^2 organisms) of 0.13 µg/mL (≈ 0.25 µM) and an MIC (Proteus rettgeri; read-out: Minimum Inhibitory Concentration, Proteus rettgeri strain 2, B, Inoculum of 10^6 organisms) of 63 µg/mL (≈ 121 µM). For the same compound, the MIC (Proteus rettgeri; read-out: Minimum Inhibitory Concentration, Proteus rettgeri strain 3, A, Inoculum of 10^2 organisms) was 0.25 µg/mL (≈ 0.481 µM), the MIC (Proteus rettgeri; read-out: Minimum Inhibitory Concentration, Proteus rettgeri strain 3, B, Inoculum of 10^6 organisms) was greater than 250 µg/mL and the “MICB /MICA” value (Staphylococcus Aureus [4]; Lacking penicillinase, 3 strains) was 1.6. For the same compound, the “MICB /MICA” value (Staphylococcus Aureus [4]; Penicillinase producer, 26 strains) was 1.5, the MIC (Staphylococcus Aureus [4]; Lacking penicillinase, 3 strains, B, inoculum of 10^6 organisms, geometric means) was 2.5 µg/mL (≈ 4.81 µM) and the MIC (Staphylococcus Aureus [4]; Penicillinase producer, 26 strains, A, Inoculum of 10^2 organisms, geometric means) was 3.8 µg/mL (≈ 7.31 µM). For the same compound, the MIC (Staphylococcus Aureus [4]; Penicillinase producer, 26 strains, B, inoculum of 10^6 organisms, geometric means) was 5.7 µg/mL (≈ 11 µM), the MIC (Staphylococcus Aureus [4]) was 1.6 µg/mL (≈ 3.08 µM) and the “effect of cell concentration on growth inhibitory activity” value (Staphylococcus Aureus [4]; penicillinase-producing strains) was “slightly”. The “relative activity against Haemophilus influenzae” value (Haemophilus influenzae) was “about equally active”, the MIC (Clostridium sp.; 48 h, read-out: concentration inhibiting all strains) was 2 µg/mL (≈ 3.85 µM) and the MIC (Clostridium sp.; read-out: Minimum inhibitory concentration) was 2 µg/mL (≈ 3.85 µM). The MIC (Serratia marcescens) was greater than 125 µg/mL, the MIC (Bacteroides Fragilis) was 100 µg/mL (≈ 192 µM) and the MIC (Proteus mirabilis; read-out: Minimum Inhibitory Concentration, Proteus mirabilis strain 1, A, Inoculum of 10^2 organisms) was 0.5 µg/mL (≈ 0.962 µM). For the same compound, the MIC (Proteus mirabilis; read-out: Minimum Inhibitory Concentration, Proteus mirabilis strain 1, B, Inoculum of 10^6 organisms) was 2 µg/mL (≈ 3.85 µM), the MIC (Proteus mirabilis; read-out: Minimum Inhibitory Concentration, Proteus mirabilis strain 2, A, Inoculum of 10^2 organisms) was 0.5 µg/mL (≈ 0.962 µM) and the MIC (Proteus mirabilis; read-out: Minimum Inhibitory Concentration, Proteus mirabilis strain 2, B, Inoculum of 10^6 organisms) was 4 µg/mL (≈ 7.7 µM). For the same compound, the MIC (Proteus mirabilis; read-out: Minimum Inhibitory Concentration, Proteus mirabilis strain 3, A, Inoculum of 10^2 organisms) was 0.5 µg/mL (≈ 0.962 µM), the MIC (Proteus mirabilis; read-out: Minimum Inhibitory Concentration, Proteus mirabilis strain 3, B, Inoculum of 10^6 organisms) was 2 µg/mL (≈ 3.85 µM) and the MIC (Proteus mirabilis; read-out: Minimum Inhibitory Concentration, Proteus mirabilis strain 4, A, Inoculum of 10^2 organisms) was 0.5 µg/mL (≈ 0.962 µM). It also gave an MIC (Proteus mirabilis; read-out: Minimum Inhibitory Concentration, Proteus mirabilis strain 4, B, Inoculum of 10^6 organisms) of 2 µg/mL (≈ 3.85 µM), an MIC (Proteus mirabilis; read-out: Minimum Inhibitory Concentration, Proteus mirabilis strain 5, A, Inoculum of 10^2 organisms) of 0.5 µg/mL (≈ 0.962 µM) and an MIC (Proteus mirabilis; read-out: Minimum Inhibitory Concentration, Proteus mirabilis strain 5, B, Inoculum of 10^6 organisms) of 4 µg/mL (≈ 7.7 µM). The MIC (Vibrio cholerae) was 4 µg/mL (≈ 7.7 µM), the fraction unbound (in vitro) was 0.33 and the MIC (Pseudomonas aeruginosa) was greater than 125 µg/mL. The MIC (Proteus vulgaris; read-out: Minimum Inhibitory Concentration, Proteus vulgaris strain 1, A, Inoculum of 10^2 organisms) was 1 µg/mL (≈ 1.92 µM), the MIC (Proteus vulgaris; read-out: Minimum Inhibitory Concentration, Proteus vulgaris strain 1, B, Inoculum of 10^6 organisms) was 4 µg/mL (≈ 7.7 µM) and the MIC (Proteus vulgaris; read-out: Minimum Inhibitory Concentration, Proteus vulgaris strain 2, A, Inoculum of 10^2 organisms) was 1 µg/mL (≈ 1.92 µM). The MIC (Proteus vulgaris; read-out: Minimum Inhibitory Concentration, Proteus vulgaris strain 2, B, Inoculum of 10^6 organisms) was 8 µg/mL (≈ 15.4 µM), the MIC (Proteus vulgaris; read-out: Minimum Inhibitory Concentration, Proteus vulgaris strain 4, A, Inoculum of 10^2 organisms) was 1 µg/mL (≈ 1.92 µM) and the MIC (Proteus vulgaris; read-out: Minimum Inhibitory Concentration, Proteus vulgaris strain 4, B, Inoculum of 10^6 organisms) was 8 µg/mL (≈ 15.4 µM).
